{
  "source": "patent US11959083B2",
  "about": "“Immunosuppression-reverting oligonucleotides inhibiting the expression of CD39” (Secarna Pharmaceuticals GmbH & Co. KG, priority 2016, dated 2024)",
  "key": {"mCD39 mRNA": {"test_system": "mCD39 mRNA", "experiment": "mCD39 mRNA knockdown efficacy screen in A20 cells (single dose, gymnotic delivery, QuantiGene Singleplex)", "assay_type": "cell-based, mouse", "settings": "10 μM, three days, normalized to HPRT1"}, "human CD8+ T cells": {"test_system": "human CD8+ T cells", "experiment": "Proliferation and absolute cell numbers of human CD8+ T cells in presence or absence of extracellular ATP", "assay_type": "cell-based", "settings": "5 μM oligonucleotide 5 days or 20 μM ARL67156 24 h", "experimental": "(§1) FIG. 12A-12C depict human CD8^+ T cells which were labelled with cell proliferation dye, activated with anti-CD3 and treated with 5 μM of the antisense oligonucleotide A04040H (black column) or the control oligonucleotide S6 (white column) for a total treatment time of 5 days. In the vehicle control (striped column), cells were activated with anti-CD3 only. Subsequently, 400 μM of ATP or vehicle were added to cells on day 3 and day 4 after start of oligonucleotide treatment. Furthermore, as additional control, the small molecular CD39-inhibitor ARL67156 trisodium salt was added at 20 μM to cells on day 4, for an incubation time of 24 h (checked column). On day 5 after start of oligonucleotide treatment, (FIG. 12A) CD39 protein expression, (FIG. 12B) proliferation and (FIG. 12C) absolute cell numbers of CD8^+ T cells were analyzed using Flow Cytometry. Depicted is the mean of triplicate wells+/−SD.\nIn cancer, ATP is released from tumor cells for example after cell death induced by chemotherapy or radiation therapy. Since the CD39-CD73 axis plays an important role for T cell function the effects of A04040H on T cell proliferation in the presence or absence of extracellular ATP were investigated. Human CD8^+ T cells were labelled with cell proliferation dye, activated with anti-CD3 and treated with 5 μM of the antisense oligonucleotide A04040H or the control oligonucleotide S6 for a total treatment time of 5 days. In the vehicle control, cells were activated with anti-CD3 only. Subsequently, 400 μM of ATP or vehicle were added to cells on day 3 and day 4 after start of oligonucleotide treatment. Furthermore, as additional control, the small molecular CD39-inhibitor ARL67156 trisodium salt was added at 20 μM to cells on day 4 for an incubation time of 24 h. On day 5 after start of oligonucleotide treatment, CD39 protein expression, proliferation, and absolute cell numbers of CD8^+ T cells were analyzed using Flow Cytometry."}, "CD39 protein": {"test_system": "CD39 protein", "experiment": "CD39 protein expression in human CD8+ T cells (flow cytometry, Example 11)", "assay_type": "cell-based", "settings": "5 μM, 5 days, anti-CD3", "experimental": "as §1\nIn cancer, ATP is released from tumor cells for example after cell death induced by chemotherapy or radiation therapy. Since the CD39-CD73 axis plays an important role for T cell function the effects of A04040H on T cell proliferation in the presence or absence of extracellular ATP were investigated. […] On day 5 after start of oligonucleotide treatment, CD39 protein expression, proliferation, and absolute cell numbers of CD8^+ T cells were analyzed using Flow Cytometry."}, "hCD39 mRNA": {"test_system": "hCD39 mRNA", "experiment": "IC50 determination / concentration-dependent hCD39 mRNA knockdown in HDLM-2 cells", "assay_type": "cell-based, human", "settings": "for mRNA inhibition: HDLM-2, 3 days; for IC50: hCD39 mRNA, 3 days", "how_it_was_run": "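Antisense oligonucleotides applied to HDLM-2 cells for 3 days, titrated 10 μM down to 4.5 nM. hCD39 mRNA normalized to HPRT1 and expressed as residual level relative to untreated cells (100); mean of triplicates, IC50 from concentration-response.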"}, "[1]": {"settings": "absence of extracellular ATP, vs vehicle"}, "[2]": {"settings": "supplementation with 400 μM of ATP"}},
  "note": "l = locked nucleic acid (LNA); d = 2'-deoxy (DNA)",
  "data": [
    {"substance": "+C*+G*+T*T*T*A*G*G*C*T*A*T*G*T*A*+C*+T*+T (CGTTTAGGCTATGTACTT; chemistry not fully specified) [neg1, negative control antisense oligonucleotide not hybridizing with CD39, described in WO2014154843 A1, reference compound]", "values": [
      {"measurement": "Relative mCD39 mRNA expression (compared to non-treated cells)", "setting": "mCD39 mRNA", "value": 0.67}
    ]},
    {"substance": "+G*+T*+T*T*G*T*G*T*G*A*G*A*G*C*+T*+T (antisense GTTTGTGTGAGAGCTT; sugars from the 5' end l3 d11 l2, all phosphorothioate, methylation of C not given here) [A04040H]", "values": [
      {"measurement": "absolute cell numbers of CD8+ T cells", "setting": "human CD8+ T cells; [1]", "value": "no differences"},
      {"measurement": "proliferation of CD8+ T cells", "setting": "human CD8+ T cells; [1]", "value": "no differences"},
      {"measurement": "absolute numbers of CD8+ T cells", "setting": "human CD8+ T cells; [2]", "value": "not altered"},
      {"measurement": "proliferation of CD8+ T cells", "setting": "human CD8+ T cells; [2]", "value": "not reduced"},
      {"measurement": "CD39 protein expression", "setting": "CD39 protein", "value": "potently suppressed"},
      {"measurement": "mRNA inhibition", "setting": "hCD39 mRNA; 0.45 nM, Table 12", "value": 0.00, "unit": "%"},
      {"measurement": "mRNA inhibition", "setting": "hCD39 mRNA; 1.3 nM, Table 12", "value": 0.00, "unit": "%"},
      {"measurement": "mRNA inhibition", "setting": "hCD39 mRNA; 4 nM, Table 12", "value": 0.00, "unit": "%"},
      {"measurement": "mRNA inhibition", "setting": "hCD39 mRNA; 0.0045 μM, Table 8", "value": 22.64, "unit": "%"},
      {"measurement": "mRNA inhibition", "setting": "hCD39 mRNA; 0.0045 μM, Table 9", "value": 12.51, "unit": "%"},
      {"measurement": "mRNA inhibition", "setting": "hCD39 mRNA; 12 nM, Table 12", "value": 0.00, "unit": "%"},
      {"measurement": "mRNA inhibition", "setting": "hCD39 mRNA; 0.013 μM, Table 8", "value": 40.51, "unit": "%"},
      {"measurement": "mRNA inhibition", "setting": "hCD39 mRNA; 0.013 μM, Table 9", "value": 36.68, "unit": "%"},
      {"measurement": "mRNA inhibition", "setting": "hCD39 mRNA; 0.04 μM, Table 8", "value": 62.42, "unit": "%"},
      {"measurement": "mRNA inhibition", "setting": "hCD39 mRNA; 0.04 μM, Table 9", "value": 74.68, "unit": "%"},
      {"measurement": "mRNA inhibition", "setting": "hCD39 mRNA; 40 nM, Table 12", "value": 27.56, "unit": "%"},
      {"measurement": "mRNA inhibition", "setting": "hCD39 mRNA; 110 nM, Table 12", "value": 69.84, "unit": "%"},
      {"measurement": "mRNA inhibition", "setting": "hCD39 mRNA; 0.12 μM, Table 8", "value": 88.40, "unit": "%"},
      {"measurement": "mRNA inhibition", "setting": "hCD39 mRNA; 0.12 μM, Table 9", "value": 93.14, "unit": "%"},
      {"measurement": "mRNA inhibition", "setting": "hCD39 mRNA; 330 nM, Table 12", "value": 91.26, "unit": "%"},
      {"measurement": "mRNA inhibition", "setting": "hCD39 mRNA; 0.4 μM, Table 8", "value": 95.94, "unit": "%"},
      {"measurement": "mRNA inhibition", "setting": "hCD39 mRNA; 0.4 μM, Table 9", "value": 98.42, "unit": "%"},
      {"measurement": "mRNA inhibition", "setting": "hCD39 mRNA; 1000 nM, Table 12", "value": 97.06, "unit": "%"},
      {"measurement": "mRNA inhibition", "setting": "hCD39 mRNA; 1.1 μM, Table 8", "value": 98.54, "unit": "%"},
      {"measurement": "mRNA inhibition", "setting": "hCD39 mRNA; 1.1 μM, Table 9", "value": 99.38, "unit": "%"},
      {"measurement": "mRNA inhibition", "setting": "hCD39 mRNA; 3.3 μM, Table 8", "value": 99.01, "unit": "%"},
      {"measurement": "mRNA inhibition", "setting": "hCD39 mRNA; 3.3 μM, Table 9", "value": 99.32, "unit": "%"},
      {"measurement": "mRNA inhibition", "setting": "hCD39 mRNA; 10 μM, Table 8", "value": 98.98, "unit": "%"},
      {"measurement": "mRNA inhibition", "setting": "hCD39 mRNA; 10 μM, Table 9", "value": 99.57, "unit": "%"},
      {"measurement": "maximal target inhibition (hCD39 mRNA)", "setting": "hCD39 mRNA; HDLM-2 cells, compared to untreated cells, first IC50 determination", "value": 99, "unit": "%"},
      {"measurement": "IC50", "setting": "hCD39 mRNA; HDLM-2 cells, first screening round (Table 8)", "value": 25.3, "unit": "nM"},
      {"measurement": "IC50", "setting": "hCD39 mRNA; HDLM-2 cells, second screening round (Table 9)", "value": 21.5, "unit": "nM"},
      {"measurement": "IC50", "setting": "hCD39 mRNA; HDLM-2 cells, third screening round (Table 12)", "value": 52.8, "unit": "nM"}
    ]}
  ]
}
